Assay type in all cases: biochemical
The target of one assay is Abl (h) (Homo sapiens, UniProt P00519). Kind of assay: Abl human kinase assay (glass-fiber filter). The following applies: test concentration of 10^−6M; for inhibition at 1 µM: read-out: C1 score (inhibition of Abl human). The method, then: (§1) In the glass-fiber filter technology the activity of the kinase of interest is measured using an appropriate substrate that is incubated with the aforementioned kinase protein in the presence of (^33P) radiolabeled ATP. (^33P) Phosphorylation of the substrate is subsequently measured as radioactivity bound on a glass fiber-filter.
(§2) All kinases are pre-diluted to a 10× working concentration prior to addition into the assay. The composition of the dilution buffer for each kinase is detailed below.
(§3) (specific activity approx. 500 cpm/pmol, concentration as required). The reaction is initiated by the addition of the MgATP mix. After incubation for 40 minutes at room temperature, the reaction is stopped by the addition of 5 μl of a 3% phosphoric acid solution. 10 μl of the reaction is then spotted onto a P30 filtermat and washed three times for 5 minutes in 75 mM phosphoric acid and once in methanol prior to drying and scintillation counting.

The target in a further assay is cSRC (h) (Homo sapiens, UniProt P12931). The assay is described as follows: cSRC human kinase assay (glass-fiber filter). The following applies: test concentration of 10^−6M; for inhibition at 1 µM: read-out: C3 score (inhibition of cSRC human). The essentials:
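Radiometric assay: kinase and substrate are incubated with [33P]ATP, with the reaction started by MgATP mix. The reaction is spotted on P30 filtermat, washed in 75 mM phosphoric acid and methanol, and the bound 33P is measured by scintillation counting.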

Another assay addresses EGFR (h) (Homo sapiens, UniProt P00533). The assay is described as follows: EGFR human kinase assay (glass-fiber filter). The following applies: test concentration of 10^−6M; for inhibition at 1 µM: read-out: C4 score (inhibition of EGFR human). The method, then:
as §1, §2
as §3, with “In a final reaction volume of 25 μl, EGFR (h) (5-10 mU) is incubated with 8 mM MOPS pH 7.0, 0.2 mM EDTA, 10 mM MnCl2, 0.1 mg/ml poly(Glu, Tyr) 4:1, 10 mM MgAcetate and [γ-^33P-ATP] (specific” for “(specific”, “Filtermat A” for “P30 filtermat”

In the next assay the target is Fes (h) (Homo sapiens, UniProt P07332). Kind of assay: Fes human kinase assay (glass-fiber filter). As to conditions: test concentration of 10^−6M; for inhibition at 1 µM: read-out: C4 score (inhibition of Fes human). The method, then: as §1, §2
as §3, with “In a final reaction volume of 25 μl, Fes (h) (5-10 mU) is incubated with 8 mM MOPS pH 7.0, 0.2 mM EDTA, 0.1 mg/ml poly(Glu, Tyr) 4:1, 10 mM MgAcetate and [γ-^33P-ATP] (specific” for “(specific”, “Filtermat A” for “P30 filtermat”

The next assay addresses Flt3 (h) (Homo sapiens, UniProt P36888). The assay is described as follows: Flt3 human kinase assay (glass-fiber filter). As to conditions: test concentration of 10^−6M; for inhibition at 1 µM: read-out: C6 score (inhibition of Flt3 human). The essentials: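 Human Flt3 (5-10 mU) with 50 μM peptide substrate in 8 mM MOPS pH 7.0, 0.2 mM EDTA, 10 mM Mg acetate and [γ-33P]ATP (concentration as required), 40 min at room temperature. Reaction stopped with phosphoric acid; substrate 33P incorporation counted on P30 glass-fiber filter.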

A further assay addresses GSK3B (h) (Homo sapiens, UniProt P49841). The assay is described as follows: GSK3β human kinase assay (glass-fiber filter). As to conditions: test concentration of 10^−6M; for inhibition at 1 µM: read-out: C8 score (inhibition of GSK3β human). The method, then:
The in vitro inhibition of a panel of kinases was assessed using either the glass-fiber filter technology as described by Davies, S. P. et al., Biochem J. (2000), 351; p. 95-105.
as §1, §2
as §3, with “In a final reaction volume of 25 μl, GSK3B (h) (5-10 mU) is incubated with 8 mM MOPS pH 7.0, 0.2 mM EDTA, 20 μM […](p)EDEEE (phospho GS2 peptide), 10 mM MgAcetate and [γ-^33P-ATP] (specific” for “(specific”, “50” for “75”

The target in the next assay is Lck (h) (Homo sapiens, UniProt P06239). The assay is described as follows: Lck human kinase assay (glass-fiber filter). The following applies: test concentration of 10^−6M; for inhibition at 1 µM: read-out: C9 score (inhibition of Lck human). The procedure, abridged:
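Kinase activity measured as transfer of (^33P) from radiolabeled MgATP to substrate, captured on P30 glass-fiber filtermat, washed in 75 mM phosphoric acid and methanol, then scintillation counted.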

The target in another assay is Lyn (h) (Homo sapiens, UniProt P07948). The assay is described as follows: Lyn human kinase assay (glass-fiber filter). As to conditions: test concentration of 10^−6M; for inhibition at 1 µM: read-out: C10 score (inhibition of Lyn human). The protocol:
as §1, §2
as §3, with “In a final reaction volume of […] (h) (5-10 mU) is incubated with 50 mM Tris pH 7.5, 0.1 mM EGTA, 0.1 mM Na3VO4, 0.1% O-mercaptoethanol, 0.1 mg/ml poly(Glu, Tyr) 4:1, 10 mM MgAcetate and [γ-^33P-ATP] (specific” for “(specific”, “Filtennat A” for “P30 filtermat”

Another assay has as its target Yes (h) (Homo sapiens, UniProt P07947). The assay is described as follows: Yes human kinase assay (glass-fiber filter). As to conditions: test concentration of 10^−6M; for inhibition at 1 µM: read-out: C11 score (inhibition of Yes human). The procedure, abridged:
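Yes (h) (5-10 mU) with 0.1 mg/ml poly(Glu, Tyr) 4:1 in 8 mM MOPS pH 7.0, 0.2 mM EDTA, 10 mM MgAcetate and [γ-^33P-ATP], 40 minutes at room temperature. Stopped with phosphoric acid; substrate-bound ^33P counted on glass-fiber filter by scintillation.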

The target in another assay is Fms (h) (Homo sapiens, UniProt P07333). Kind of assay: Fms human kinase assay (glass-fiber filter). The following applies: test concentration of 10^−6M; read-out: C7 score (inhibition of Fms human). The procedure, abridged: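 Radiometric filter-binding assay: Fms (5-10 mU) with 250 μM peptide substrate and [γ-33P]ATP in 8 mM MOPS pH 7.0, 10 mM Mg acetate, 40 min at room temperature. Reaction stopped with phosphoric acid; substrate-bound 33P counted on P30 filtermat.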

A further assay deals with CSK (h) (Homo sapiens, UniProt P41240). Kind of assay: CSK human kinase assay (glass-fiber filter). As to conditions: test concentration of 10^−6M; read-out: C2 score (inhibition of CSK human). The method, then:
as §1, §2
as §3, with “In a final reaction volume of 25 μl, CSK (h) (5-10 mU) is incubated with 50 mM Tris pH 7.5, 0.1 mM EGTA, 0.1 mM Na3VO4, 0.1% β-mercaptoethanol, 0.1 mg/ml poly(Glu, Tyr) 4:1, 10 mM MnCl2, 10 mM MgAcetate and [γ-^33P-ATP] (specific” for “(specific”, “Filtermat A” for “P30 filtermat”

6 compounds from US8148388B2, “2,4 (4,6) pyrimidine derivatives” (Janssen Pharmaceutica, N.V., priority 2004, dated 2012) can be followed below.

In general, inhibition refers to the share of the control response that was lost under treatment.

GSK3B (h), sequence (P49841 whole entry): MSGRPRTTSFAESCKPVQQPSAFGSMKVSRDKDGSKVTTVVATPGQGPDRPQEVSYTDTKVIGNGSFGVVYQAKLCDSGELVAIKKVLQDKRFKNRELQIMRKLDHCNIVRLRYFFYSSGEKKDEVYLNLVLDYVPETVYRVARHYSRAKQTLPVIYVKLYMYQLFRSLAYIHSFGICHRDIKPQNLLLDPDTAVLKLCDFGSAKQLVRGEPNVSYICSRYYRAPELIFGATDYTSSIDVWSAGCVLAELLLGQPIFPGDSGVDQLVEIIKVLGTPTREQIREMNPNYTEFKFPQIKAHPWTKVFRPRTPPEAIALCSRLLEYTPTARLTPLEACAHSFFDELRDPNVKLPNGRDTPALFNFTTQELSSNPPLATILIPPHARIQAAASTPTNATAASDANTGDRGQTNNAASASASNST
Abl (h), sequence (P00519 whole entry): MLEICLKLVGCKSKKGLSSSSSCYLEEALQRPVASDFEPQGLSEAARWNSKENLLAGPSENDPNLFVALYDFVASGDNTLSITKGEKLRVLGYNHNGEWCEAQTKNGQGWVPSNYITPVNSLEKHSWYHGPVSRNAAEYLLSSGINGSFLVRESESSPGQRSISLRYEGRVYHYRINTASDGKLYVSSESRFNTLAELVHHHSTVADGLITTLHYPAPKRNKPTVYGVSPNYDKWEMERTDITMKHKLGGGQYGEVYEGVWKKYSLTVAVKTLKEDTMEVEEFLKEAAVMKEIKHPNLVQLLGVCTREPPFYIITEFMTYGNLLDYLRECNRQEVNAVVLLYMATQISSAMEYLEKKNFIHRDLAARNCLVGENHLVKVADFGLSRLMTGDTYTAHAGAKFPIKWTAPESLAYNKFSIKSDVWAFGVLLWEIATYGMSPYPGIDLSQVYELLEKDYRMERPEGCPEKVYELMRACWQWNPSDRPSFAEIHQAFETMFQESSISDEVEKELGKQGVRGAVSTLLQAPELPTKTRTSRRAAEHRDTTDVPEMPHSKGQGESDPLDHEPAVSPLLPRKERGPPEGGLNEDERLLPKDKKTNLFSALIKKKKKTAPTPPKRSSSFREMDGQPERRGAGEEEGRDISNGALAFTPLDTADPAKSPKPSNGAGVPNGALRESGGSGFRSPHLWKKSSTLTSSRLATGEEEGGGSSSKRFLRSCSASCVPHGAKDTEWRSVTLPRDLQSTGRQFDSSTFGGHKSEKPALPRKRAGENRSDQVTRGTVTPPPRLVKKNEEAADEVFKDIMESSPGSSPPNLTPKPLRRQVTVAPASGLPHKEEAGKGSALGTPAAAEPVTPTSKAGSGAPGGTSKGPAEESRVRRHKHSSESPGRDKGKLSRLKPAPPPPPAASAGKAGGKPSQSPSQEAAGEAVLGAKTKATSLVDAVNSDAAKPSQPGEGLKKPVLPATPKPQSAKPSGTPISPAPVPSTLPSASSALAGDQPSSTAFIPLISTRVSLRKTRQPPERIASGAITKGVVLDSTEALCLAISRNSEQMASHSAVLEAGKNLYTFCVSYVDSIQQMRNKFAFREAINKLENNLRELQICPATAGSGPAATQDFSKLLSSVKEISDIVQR
Flt3 (h), sequence (P36888 27-993): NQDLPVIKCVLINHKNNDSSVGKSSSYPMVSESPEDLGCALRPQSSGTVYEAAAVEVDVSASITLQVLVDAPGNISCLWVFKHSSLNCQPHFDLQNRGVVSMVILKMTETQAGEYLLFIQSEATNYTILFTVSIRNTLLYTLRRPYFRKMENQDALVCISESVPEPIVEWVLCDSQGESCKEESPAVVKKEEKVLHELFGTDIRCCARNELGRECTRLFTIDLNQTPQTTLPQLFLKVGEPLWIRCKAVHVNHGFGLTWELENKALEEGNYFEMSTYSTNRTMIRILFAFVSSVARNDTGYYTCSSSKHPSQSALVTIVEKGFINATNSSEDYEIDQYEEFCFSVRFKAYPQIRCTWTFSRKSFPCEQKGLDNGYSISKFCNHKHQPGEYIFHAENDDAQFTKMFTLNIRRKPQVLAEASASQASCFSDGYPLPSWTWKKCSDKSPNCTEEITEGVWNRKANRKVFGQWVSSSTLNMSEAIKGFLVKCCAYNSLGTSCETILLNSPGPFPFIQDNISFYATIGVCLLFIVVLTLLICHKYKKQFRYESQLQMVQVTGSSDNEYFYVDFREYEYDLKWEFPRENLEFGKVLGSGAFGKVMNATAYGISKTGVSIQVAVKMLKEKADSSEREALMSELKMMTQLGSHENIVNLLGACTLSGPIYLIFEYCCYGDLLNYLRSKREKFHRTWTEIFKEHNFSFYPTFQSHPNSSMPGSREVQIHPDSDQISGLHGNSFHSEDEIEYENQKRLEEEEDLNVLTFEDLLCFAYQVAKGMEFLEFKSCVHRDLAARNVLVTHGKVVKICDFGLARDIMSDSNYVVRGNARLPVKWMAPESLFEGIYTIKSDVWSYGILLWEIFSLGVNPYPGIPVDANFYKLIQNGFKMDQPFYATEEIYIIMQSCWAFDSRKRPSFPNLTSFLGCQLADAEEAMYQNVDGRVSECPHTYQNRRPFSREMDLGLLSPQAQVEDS
Yes (h), sequence (P07947 whole entry): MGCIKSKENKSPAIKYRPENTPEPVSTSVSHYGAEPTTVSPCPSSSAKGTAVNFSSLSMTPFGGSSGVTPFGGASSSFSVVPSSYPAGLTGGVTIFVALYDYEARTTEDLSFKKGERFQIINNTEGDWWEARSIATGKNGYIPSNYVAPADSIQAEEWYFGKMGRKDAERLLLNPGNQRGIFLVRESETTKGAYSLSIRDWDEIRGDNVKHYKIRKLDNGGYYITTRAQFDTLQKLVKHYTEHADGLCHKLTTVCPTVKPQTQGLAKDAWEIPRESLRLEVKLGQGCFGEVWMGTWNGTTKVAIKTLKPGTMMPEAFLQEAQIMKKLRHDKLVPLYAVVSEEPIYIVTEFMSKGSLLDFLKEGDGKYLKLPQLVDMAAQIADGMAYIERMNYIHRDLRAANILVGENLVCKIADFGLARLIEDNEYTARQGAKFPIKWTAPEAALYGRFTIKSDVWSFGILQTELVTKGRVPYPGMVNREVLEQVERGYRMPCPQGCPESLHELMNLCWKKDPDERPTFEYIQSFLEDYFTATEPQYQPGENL
Lyn (h), sequence (P07948 whole entry): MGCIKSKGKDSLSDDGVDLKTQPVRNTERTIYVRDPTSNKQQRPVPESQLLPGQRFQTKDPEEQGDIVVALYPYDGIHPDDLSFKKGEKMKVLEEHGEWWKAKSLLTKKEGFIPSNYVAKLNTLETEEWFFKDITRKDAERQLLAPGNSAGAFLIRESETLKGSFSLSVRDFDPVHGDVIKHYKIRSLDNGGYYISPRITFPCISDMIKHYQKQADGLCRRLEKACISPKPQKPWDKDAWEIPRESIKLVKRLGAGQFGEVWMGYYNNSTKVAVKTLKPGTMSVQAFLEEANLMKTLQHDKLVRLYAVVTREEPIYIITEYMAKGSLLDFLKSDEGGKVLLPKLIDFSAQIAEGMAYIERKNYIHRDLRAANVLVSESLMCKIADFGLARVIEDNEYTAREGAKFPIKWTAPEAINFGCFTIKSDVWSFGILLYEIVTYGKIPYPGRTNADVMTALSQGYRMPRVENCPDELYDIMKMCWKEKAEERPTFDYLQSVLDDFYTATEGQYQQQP
Lck (h), sequence (P06239 whole entry): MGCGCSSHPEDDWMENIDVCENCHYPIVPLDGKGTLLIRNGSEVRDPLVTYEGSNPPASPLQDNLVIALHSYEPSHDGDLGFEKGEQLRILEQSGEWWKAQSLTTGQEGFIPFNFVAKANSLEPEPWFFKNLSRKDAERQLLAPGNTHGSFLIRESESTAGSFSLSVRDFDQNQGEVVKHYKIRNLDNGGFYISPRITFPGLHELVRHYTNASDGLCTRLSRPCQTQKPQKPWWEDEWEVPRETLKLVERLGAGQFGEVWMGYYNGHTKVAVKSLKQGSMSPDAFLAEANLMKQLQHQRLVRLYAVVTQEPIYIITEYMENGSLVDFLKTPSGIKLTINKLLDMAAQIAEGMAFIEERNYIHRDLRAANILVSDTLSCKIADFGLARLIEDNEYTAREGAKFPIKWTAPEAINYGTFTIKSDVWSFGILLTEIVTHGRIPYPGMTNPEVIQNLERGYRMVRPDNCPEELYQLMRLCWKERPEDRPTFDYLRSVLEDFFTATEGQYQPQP
Fes (h), sequence (P07332 whole entry): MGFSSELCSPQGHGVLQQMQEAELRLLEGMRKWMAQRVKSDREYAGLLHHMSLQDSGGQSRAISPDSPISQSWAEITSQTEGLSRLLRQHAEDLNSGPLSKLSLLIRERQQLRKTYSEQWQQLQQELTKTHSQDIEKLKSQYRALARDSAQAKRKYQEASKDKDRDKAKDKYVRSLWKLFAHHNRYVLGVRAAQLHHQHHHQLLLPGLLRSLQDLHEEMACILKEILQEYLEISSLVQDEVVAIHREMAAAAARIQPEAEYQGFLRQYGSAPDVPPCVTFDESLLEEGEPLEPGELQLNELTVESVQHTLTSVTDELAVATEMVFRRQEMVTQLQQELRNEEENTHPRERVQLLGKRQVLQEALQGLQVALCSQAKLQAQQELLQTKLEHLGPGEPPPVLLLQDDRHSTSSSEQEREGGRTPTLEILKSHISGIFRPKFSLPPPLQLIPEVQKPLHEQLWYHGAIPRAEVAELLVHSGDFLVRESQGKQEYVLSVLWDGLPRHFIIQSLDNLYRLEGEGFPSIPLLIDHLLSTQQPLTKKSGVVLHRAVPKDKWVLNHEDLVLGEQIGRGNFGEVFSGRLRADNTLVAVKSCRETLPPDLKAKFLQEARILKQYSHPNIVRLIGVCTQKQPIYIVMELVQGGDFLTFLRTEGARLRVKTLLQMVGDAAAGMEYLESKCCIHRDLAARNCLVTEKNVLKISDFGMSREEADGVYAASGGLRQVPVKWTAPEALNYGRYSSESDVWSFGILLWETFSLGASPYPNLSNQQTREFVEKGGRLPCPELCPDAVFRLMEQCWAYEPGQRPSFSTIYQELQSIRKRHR

As to “1H,7H-12,8-metheno-6,2-nitrilo-13,1,5,7,17,20-benzoxapentaazacyclotricosine-3-carbonitrile, 24-chloro-14,15,16,17,18,19,20,21-octahydro-11-methoxy-20-methyl-18-oxo- [Compound 33]”, at Abl (h), the “C1 score (inhibition of Abl human)” value is given as 3 (Score 3=60-80% inhibition). Besides, the “C3 score (inhibition of cSRC human)” value at cSRC (h) is listed as 4 (Score 4=>80% inhibition). Moreover, at EGFR (h), the “C4 score (inhibition of EGFR human)” value is on record as 3 (Score 3=60-80% inhibition). At Fes (h), the “C4 score (inhibition of Fes human)” value is reported as 2 (Score 2=30-60% inhibition). In addition, the “C6 score (inhibition of Flt3 human)” value on Flt3 (h) is listed as 4 (Score 4=>80% inhibition). Moreover, the “C8 score (inhibition of GSK3β human)” value on GSK3B (h) is given as 2 (Score 2=30-60% inhibition). Also, at Lck (h), the “C9 score (inhibition of Lck human)” value is recorded as 3 (Score 3=60-80% inhibition). For the same compound, the “C10 score (inhibition of Lyn human)” value on Lyn (h) is listed as 4 (Score 4=>80% inhibition). For the same compound, on Yes (h), the “C11 score (inhibition of Yes human)” value is reported as 4 (Score 4=>80% inhibition).
For `COc1ccc2cc1OCCCNC(=O)[C@@H]1CCCN1Cc1cc(F)c(Cl)cc1Nc1nc(ncc1C#N)N2` [Compound 6, 21,17-metheno-15,11-nitrilo-1H,16H-pyrrolo[2,1-s][13,1,5,7,17,20]benzoxapentaazacyclotricosine-12-carbonitrile, 8-chloro-7-fluoro-2,3,5,10,23,24,25,26,27,27a-decahydro-20-methoxy-27-oxo-, (27aS)-], the “C3 score (inhibition of cSRC human)” value on cSRC (h) is given as 1 (Score 1=10-30% inhibition). Also, the “C4 score (inhibition of EGFR human)” value at EGFR (h) was 1 (Score 1=10-30% inhibition). Also, the “C4 score (inhibition of Fes human)” value on Fes (h) is 1 (Score 1=10-30% inhibition). At Flt3 (h), the “C6 score (inhibition of Flt3 human)” value is recorded as 2 (Score 2=30-60% inhibition). Also, the “C8 score (inhibition of GSK3β human)” value at GSK3B (h) was 2 (Score 2=30-60% inhibition). The “C9 score (inhibition of Lck human)” value at Lck (h) was 2 (Score 2=30-60% inhibition). Also, at Lyn (h), the “C10 score (inhibition of Lyn human)” value was 1 (Score 1=10-30% inhibition). Also, the “C11 score (inhibition of Yes human)” value on Yes (h) is 2 (Score 2=30-60% inhibition).
`N#Cc1cnc2nc1Nc1cccc(c1)OCCNC(=O)c1cccc(c1)N2` [Compound 20, 14-oxa-2,4,8,17,25-pentaazatetracyclo[17.3.1.1~3,7~.1~9,13~]pentacosa-1(23),3,5,7(25),9,11,13(24),19,21-nonaene-6-carbonitrile, 18-oxo-]: the inhibition at 1 µM is 10 to 30% on Abl (h); 10 to 30% on cSRC (h); 10 to 30% on EGFR (h); 10 to 30% on Fes (h); 30 to 60% on Flt3 (h); 10 to 30% on Fms (h). For the same compound, the inhibition at 1 µM lay within 60 to 80% on GSK3B (h) and 10 to 30% on Yes (h).
On to `O=C1NCCCCCOc2cccc(c2)Nc2ccnc(n2)Nc2cccc1c2` [Compound 22, 14-oxa-2,4,8,20,28-pentaazatetracyclo[20.3.1.1~3,7~.1~9,13~]octacosa-1(26),3,5,7(28),9,11,13(27),22,24-nonaen-21-one], for which the inhibition at 1 µM is 10 to 30% on Abl (h); 10 to 30% at CSK (h); 10 to 30% at cSRC (h); 10 to 30% on Fes (h); 30 to 60% on Flt3 (h); 10 to 30% on Fms (h). For the same compound, the inhibition at 1 µM at Lck (h), at Lyn (h) and at Yes (h) was 10 to 30% throughout.
Consider `N#Cc1cnc2nc1Nc1cccc(c1)OCC(=O)NCCOc1cccc(c1)N2` [Compound 27, 14,20-dioxa-2,4,8,17,27-pentaazatetracyclo[19.3.1.1~3,7~.1~9,13~]heptacosa-1(25),3,5,7(27),9,11,13(26),21,23-nonaene-6-carbonitrile, 16-oxo-], for which the inhibition at 1 µM lay within 10 to 30% at Abl (h); 10 to 30% at EGFR (h); 10 to 30% at Fes (h); 60 to 80% at Flt3 (h); 30 to 60% at Fms (h); 30 to 60% at GSK3B (h). In addition, the results for the inhibition at 1 µM at Lck (h), at Lyn (h) and at Yes (h) were 30 to 60%, 10 to 30% and 10 to 30%, respectively.
As to `O=C1CCCCNC(=O)c2cccc(c2)Nc2cc(ncn2)Nc2cccc(c2)CN1` [Compound 58, 2,4,6,8,15,21-hexaazatetracyclo[21.3.1.1~3,7~.1~9,13~]nonacosa-1(27),3,5,7(29),9,11,13(28),23,25-nonaene-14,20-dione], the inhibition at 1 µM on CSK (h) was in the range of 60 to 80%; on Flt3 (h), 10 to 30%; at Fms (h), 30 to 60%; at Lyn (h), 10 to 30%.
